Source: patent US10905120B2, “ABA receptor agonists that modulate transpiration” (The Regents of the University of California, priority 2016, dated 2021)
In brackets after ≈: the same amount, converted by molar mass. Where two headings read alike, the source gives them in different places.

Tests used:
PYR1^I110V mutant [1] = biological target: T1, PYR1^I110V mutant (Arabidopsis thaliana, UniProt O49686, I110V); experiment: Phosphatase inhibition assay with PYR1 I110V mutant; type: biochemical
T1 construct: made in house
T1 sequence (O49686 whole entry I110V, one chain of several): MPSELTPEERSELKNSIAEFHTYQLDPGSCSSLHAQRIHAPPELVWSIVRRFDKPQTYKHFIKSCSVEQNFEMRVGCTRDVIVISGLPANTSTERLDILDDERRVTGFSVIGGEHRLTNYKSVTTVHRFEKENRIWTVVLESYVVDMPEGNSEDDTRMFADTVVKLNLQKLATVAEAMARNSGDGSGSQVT
Experimental: (§1) Without intending to be bound by theory, subtle changes in the binding pockets of PYR1/PYL2 proteins can dictate the orientation of pyrabactin and contribute towards its selectivity towards PYR1 vs PYL2. […] Cyanabactin's activity was tested with the PYR1^I110V and the reciprocal PYL2^V114I mutants to provide possible insights into its selectivity for PYR1 vs PYL2.
(§2) Recombinant PYR1^I110V and PYL2^V114I proteins were prepared using a previously described protocol previously (Peterson Peterson, F. C. et al., “Structural Basis for Selective Activation of ABA Receptors,” Nat. Struct. Mol. Biol. 2010, 17 (99), 1109-1113) and tested in absorbance based phosphatase inhibition assay using p-nitrophenol phosphate as substrate as previously described.

PYL2^V114I mutant [2] = biological target: T2, PYL2^V114I mutant (Arabidopsis thaliana, UniProt O80992, V114I); experiment: Phosphatase inhibition assay with PYL2 V114I mutant; type: biochemical
T2 construct: made in house
T2 sequence (O80992 whole entry V114I, one chain of several): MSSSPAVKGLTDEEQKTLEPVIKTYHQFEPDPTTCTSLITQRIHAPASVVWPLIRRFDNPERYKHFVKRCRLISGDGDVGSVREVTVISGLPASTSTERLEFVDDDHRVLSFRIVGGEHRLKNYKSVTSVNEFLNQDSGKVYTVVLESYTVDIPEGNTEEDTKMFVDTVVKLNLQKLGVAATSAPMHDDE
Experimental: as §1, §2

PYR1 = biological target: T3, PYR1 (Arabidopsis thaliana, UniProt O49686); experiment: PP2C inhibition assay, recombinant PYR1 receptor; type: biochemical
T3 sequence (O49686 1-191): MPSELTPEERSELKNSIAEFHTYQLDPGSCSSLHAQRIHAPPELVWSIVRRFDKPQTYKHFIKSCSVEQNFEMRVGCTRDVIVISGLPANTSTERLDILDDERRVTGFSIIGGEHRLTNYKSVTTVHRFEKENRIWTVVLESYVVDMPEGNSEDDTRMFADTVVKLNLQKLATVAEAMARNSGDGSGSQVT
T3 sequence (Q9CAJ0 23-511 partner): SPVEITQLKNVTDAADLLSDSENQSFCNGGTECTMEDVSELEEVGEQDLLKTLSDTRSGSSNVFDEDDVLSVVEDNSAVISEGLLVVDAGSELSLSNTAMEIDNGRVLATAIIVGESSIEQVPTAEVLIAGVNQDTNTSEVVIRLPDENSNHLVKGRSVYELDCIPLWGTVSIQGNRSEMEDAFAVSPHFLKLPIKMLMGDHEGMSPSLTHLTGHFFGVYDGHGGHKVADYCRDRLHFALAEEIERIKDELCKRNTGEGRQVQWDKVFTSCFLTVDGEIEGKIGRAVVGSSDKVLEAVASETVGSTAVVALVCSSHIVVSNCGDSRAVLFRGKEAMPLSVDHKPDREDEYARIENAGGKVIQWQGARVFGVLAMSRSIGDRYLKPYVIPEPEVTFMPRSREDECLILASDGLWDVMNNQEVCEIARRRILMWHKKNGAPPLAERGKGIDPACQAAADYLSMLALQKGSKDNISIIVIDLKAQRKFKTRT
Experimental: (§3) Reactions were started by adding 40 μL of a reaction solution containing 25 mM 4-nitrophenyl phosphate in assay buffer, after which absorbance measurements were immediately collected using a 405 nm on Wallac plate reader. Reactions contained 100 nM PP2C and 200 nM PYR/PYL proteins. […] The dose response data was fitted to a log (inhibitor) vs response-(variable slope) model using non-linear regression to infer the IC50 values using Graph Pad Prism 6.0.

PYL2 = biological target: T4, PYL2 (Arabidopsis thaliana, UniProt O80992); experiment: PP2C inhibition assay, recombinant PYL2 receptor; type: biochemical
T4 sequence (O80992 1-190): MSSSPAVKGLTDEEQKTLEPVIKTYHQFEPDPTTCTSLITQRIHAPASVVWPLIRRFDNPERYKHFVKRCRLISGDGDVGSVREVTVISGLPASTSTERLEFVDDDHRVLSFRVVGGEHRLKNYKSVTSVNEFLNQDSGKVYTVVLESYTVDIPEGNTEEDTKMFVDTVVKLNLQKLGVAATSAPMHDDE
T4 sequence (Q9CAJ0 23-511 partner): T3 sequence (Q9CAJ0 23-511 partner)
Experimental: as §3

adult Arabidopsis plants = experiment: Thermal imaging assay of sprayed adult plants; type: in vivo; conditions: sprayed at 50 uM dose on adult Arabidopsis plants; compared with quinabactin and ABA at the same dose
From the text: Molecules that elicit ABA-like effects in vivo typically close guard cells, which arrests transpirational water loss, resulting in less efficient cooling of the leaf surface and a concomitant increase in leaf surface temperature. Infrared thermography has recently emerged as an attractive, noninvasive technique to evaluate plant leaf surface temperature.
For the adult plants used for thermal imaging, seeds were sterilized as described in Example 3. Afterwards, the seeds were spread onto 0.7% agar MS plant growth medium containing one-half MS salts and 0.5% sucrose. After 4 d of stratification at 4° C., these plates were transferred to a growth chamber in light and allowed to germinate and grow for 7 d. The seedlings then were transferred into soil, and plants of 3-4 wk old were used for thermal imaging. Before thermal imaging, topical spraying of the plants was performed with a water solution containing an active agent (50 μM ABA, quinabactin, or a test compound of interest), 0.5% DMSO, and 0.02% polyalkyleneoxide modified heptamethyltrisiloxane surfactant (Silwet-77). Thermal images were collected just before spraying, 24 h after treatment, and 48 h after treatment. Treated plants were compared to mock-treated plants that had been sprayed with water containing 0.5% DMSO and 0.02% Silwet-77.
Thermal images were collected at 16 h after treatment. Thermal images were quantified using the Flir tools software version 5.2.15161.1001 by measuring the average leaf temperature of 5-6 leaves per plant. Average temperatures were calculated for 10 replicate plants (in 5 pots) per treatment. Statistical comparisons between the treated and the mock-treated plants were performed using pairwise t-tests. In the graphs represented in FIG. 1B, error bars represent the standard error of mean, asterisks symbols indicate statistical significance, and * indicates p≤0.05, ** for p≤0.01, *** for p≤0.001.

[3] = test system: Arabidopsis thaliana seeds; experiment: Germination assay; type: in vivo; conditions: Minimal Inhibitory Concentration, 3 d in darkness after 4 d stratification
Experimental: Germination experiments were performed with Arabidopsis thaliana seeds of wildtype Col0, Ler, or mutant backgrounds.
Seeds were sterilized by 30 sec incubation in 70% ethanol solution followed by a 5 min […] (while vigorously shaking) in a bleach-Tween solution. Afterwards, the sterilizing solutions were removed, and five washes were performed with sterile distilled water. To enhance complete removal of the solutions between the different steps, short centrifuge spins were performed. Finally, the now surface-sterilized seeds were re-suspended in an aseptic 0.1% agar solution to simplify distribution over multiwall plates. One drop of the solution contained on average 20-30 seeds.
In the multiwell plates, seeds were plated onto 0.7% agar Murashige amd Skoog (MS) plant growth medium containing one-half MS salts and 0.5% sucrose containing different concentrations of ABA, quinabactin, or the compound of interest. After 4 d of stratification at 4° C., the plates were transferred to a growth chamber in darkness and allowed to germinate for 3 d before germination was evaluated. The results are shown above in Table 1 and FIGS. 3A and 3B.

PYR1^I110V mutant [4] = biological target: T1, PYR1^I110V mutant; conditions: cited from earlier work
PYL2^V114I mutant [5] = biological target: T2, PYL2^V114I mutant; conditions: cited from earlier work
[6] = recombinant mutant receptor, p-nitrophenol phosphate substrate
[7] = recombinant receptor 200 nM, PP2C 100 nM, 4-nitrophenyl phosphate substrate, absorbance 405 nm, read-out: IC50 PYR1
[8] = recombinant receptor 200 nM, PP2C 100 nM, 4-nitrophenyl phosphate substrate, absorbance 405 nm, read-out: IC50 PYL2

Compound | fold less active in PYR1^I110V mutant as compared to WT PYR1 (PYR1^I110V mutant [1]; ratio of IC50s) | IC50 (PYR1^I110V mutant [1]; [6]) | fold more active in PYL2^V114I mutant as compared to WT PYL2 (PYL2^V114I mutant [2]; ratio of IC50s) | IC50 (PYL2^V114I mutant [2]; [6]) | IC50 (PYR1; [7]) | IC50 (PYL2; [8]) | increase of leaf surface temperature (adult Arabidopsis plants) | MIC (μM) Germination [3] | responsiveness of PYR1^I110V mutant as compared to wild-type PYR1 (PYR1^I110V mutant [4]) | IC50 (PYR1) | IC50 (PYL2) | responsiveness of PYL2^V114I mutant as compared to WT PYL2 (PYL2^V114I mutant [5])
Cc1ccc(CS(=O)(=O)Nc2ccc(C#N)c(C3CC3)c2)cc1 [Ligand Q27, N-(4-Cyano-3-cyclopropylphenyl)-1-(4-methylphenyl)methanesulfonamide] | approximately 9 fold | 787 nM | 3.3 fold | 981 nM | 87 nM | 3270 nM | increase the leaf surface temperature significantly | 5 µM (≈ 1.63 µg/mL) |  |  |  | 
CC1=CC(=O)CC(C)(C)[C@@]1(O)/C=C/C(C)=C\C(=O)O [ABA, Abscisic acid, reference compound] |  |  |  |  |  |  |  | 1 µM (≈ 0.264 µg/mL) | retained responsiveness | 111 ± 3.8 nM | 39 ± 2.3 nM | retained responsiveness
CCc1cc(NS(=O)(=O)Cc2ccc(C)cc2)cc(C)c1C#N [Ligand Q30, N-(4-Cyano-3-ethyl-5-methylphenyl)-1-(4-methylphenyl)methanesulfonamide] |  |  |  |  | 72 ± 15 nM | 969 ± 77 nM | increase the leaf surface temperature significantly | 10 µM (≈ 3.28 µg/mL) |  |  |  | 
CCCc1cc(NS(=O)(=O)Cc2ccc(C)cc2)ccc1C#N [Ligand Q31, N-(4-Cyano-3-propylphenyl)-1-(4-methylphenyl)methanesulfonamide] |  |  |  |  | 100 ± 0.4 nM | 2910 ± 270 nM | to a lesser extent | 10 µM (≈ 3.28 µg/mL) |  |  |  | 
CCc1cc(NS(=O)(=O)Cc2ccc(C)cc2)ccc1C#N [Ligand Q29, N-(4-Cyano-3-ethylphenyl)-1-(4-methylphenyl)methanesulfonamide] |  |  |  |  | 48 ± 0.3 nM | 2700 ± 64 nM | to a lesser extent | 5 µM (≈ 1.57 µg/mL) |  |  |  | 
O=S(=O)(NCc1ccccn1)c1ccc(Br)c2ccccc12 [pyrabactin] |  |  |  |  |  |  |  |  | dramatically loses pyrabactin responsiveness |  |  | gains pyrabactin responsiveness
CCCc1cc(NS(=O)(=O)Cc2ccc(C)cc2)cc(C)c1C#N [Ligand Q32, N-(4-Cyano-3-methyl-5-propylphenyl)-1-(4-methylphenyl)methanesulfonamide] |  |  |  |  | 220 ± 18 nM | 1610 ± 23 nM | to a lesser extent | 10 µM (≈ 3.42 µg/mL) |  |  |  | 
CCOc1cc(NS(=O)(=O)Cc2ccc(C)cc2)ccc1C#N [Ligand Q26, N-(4-Cyano-3-ethoxyphenyl)-1-(4-methylphenyl)methanesulfonamide] |  |  |  |  | 112 ± 15 nM | 7460 ± 469 nM | increase the leaf surface temperature significantly | 10 µM (≈ 3.3 µg/mL) |  |  |  | 
